One molecule from ChEMBL document CHEMBL3832074, “DailyMed|setid=ad6a2b73-29d4-4ced-ba42-4c2ad1c5a1af | ENTACAPONE - entacapone tablet, film coated|Sun Pharma Global FZE” can be followed below.

As a reminder, the Cmax is the peak of the concentration-time curve. As usually defined, the Inhibition is the change of the read-out against control, counted positive when it falls.

Assay type in all cases: ADME, organism-based
Data set [1] is described as follows: (§1) Pharmacokinetic parameters for Enctacpone after single oral administartion of 200 and 800 mg Entacapone tablets to volunteers. Conditions: human, in vivo, 200 mg, dosed compound id 40, dosed compound name ENTACAPONE, regimen Single dose, tissue Plasma. Also noted: dose 200 mg, route oral.
The subject of data set [2] is Homo sapiens. The description is as §1. Also noted: dose 200 mg, route oral. Conditions: in vivo, dosed compound id 40, dosed compound name ENTACAPONE, gender male and female, regimen Single dose, route oral, tissue Plasma.
Data set [3] concerns Homo sapiens. Kind of data set: Pharmcokinetic parameters for Enctacpone following oral administration of Entacapone. Conditions: in vivo, dosed compound id 40, dosed compound name ENTACAPONE; for Excretion: po.

Regarding `CCN(CC)C(=O)/C(C#N)=C/c1cc(O)c(O)c([N+](=O)[O-])c1` [ENTACAPONE], the concentration in data set [1] peaked (Cmax) at 1200 ng/mL. The Inhibition is recorded as 65% in the data set with Homo sapiens [2] (at 200 mg) and 82% with Homo sapiens [2] (at 800 mg). The molecule also yielded a CL in the data set on Homo sapiens [3] (route iv, tissue Plasma) of 850 mL/min. The Excretion was 90% in the data set on Homo sapiens [3] (tissue Feces) and 10% in the data set with Homo sapiens [3] (tissue Urine).
